The source of these data is paper PMC9574867, “Discovery and Characterization of Synthesized and FDA-Approved Inhibitors of Clostridial and Bacillary Collagenases” (Journal of Medicinal Chemistry, 2022).

In general, Ki refers to a measure of affinity in units of concentration, obtained from inhibition or displacement. What is called IC50 is the midpoint of a concentration-inhibition curve. The term inhibition denotes the change of the read-out against control, counted positive when it falls. As a reminder, the MIC50 is the lowest concentration that inhibits either 50% of growth or 50% of the strains tested, depending on the study.

SMILES strings stand for the structures. ≈ marks a conversion by molar mass, not a printed value. Entries after “also recorded” stand apart in the source; their conditions may differ. Like-named read-outs stand apart in the source and are kept apart here.

One series has as its target MMP-8. On the set-up: method as in PMID 22529049, PMID 12217351, PMID 12217351. The conditions noted are these: known inhibitors, Figure 1a; cited from earlier work.
The subject of another series is ColH. As to conditions: Figure 1b, cited from earlier work.
Another series concerns the target HDAC-3 (Homo sapiens, UniProt O15379). Nature of the series: Human off-target inhibition, HDAC-3. It counts as biochemical. The procedure:
(§1) To assess the selectivity of the compounds over human MMPs and on other bacterial collagenases, selected compounds were tested against ColG-CU and ColH-PD from C. histolyticum and ColA-CU from B. cereus strain ATCC14579. In addition, the compounds were tested on catalytic domains of three human MMPs, which are characterized by different depths of the S1′ binding pocket (MMP-1 (shallow), −2 (intermediate), and −3 (deep)). They were also tested against other important human off-targets, which are involved in gene expression and the processing of TNF-α; these include HDAC-3, -8, TACE (ADAM-17),[33],[34] and COX-1.

Series [1] has as its target T1, ColH-PD (Hathewaya histolytica, UniProt Q46085). Nature of the series: biochemical. It counts as biochemical, C. histolyticum. As to conditions: for inhibition at 100 µM: read-out: Percent inhibition of ColH-PD.
Series [2] deals with T2, ColQ1-CU (Bacillus cereus, UniProt B9J3S4). Kind of series: biochemical. On the set-up: species or system B. cereus strain Q1.
T2 sequence (B9J3S4 94-765 limits assumed): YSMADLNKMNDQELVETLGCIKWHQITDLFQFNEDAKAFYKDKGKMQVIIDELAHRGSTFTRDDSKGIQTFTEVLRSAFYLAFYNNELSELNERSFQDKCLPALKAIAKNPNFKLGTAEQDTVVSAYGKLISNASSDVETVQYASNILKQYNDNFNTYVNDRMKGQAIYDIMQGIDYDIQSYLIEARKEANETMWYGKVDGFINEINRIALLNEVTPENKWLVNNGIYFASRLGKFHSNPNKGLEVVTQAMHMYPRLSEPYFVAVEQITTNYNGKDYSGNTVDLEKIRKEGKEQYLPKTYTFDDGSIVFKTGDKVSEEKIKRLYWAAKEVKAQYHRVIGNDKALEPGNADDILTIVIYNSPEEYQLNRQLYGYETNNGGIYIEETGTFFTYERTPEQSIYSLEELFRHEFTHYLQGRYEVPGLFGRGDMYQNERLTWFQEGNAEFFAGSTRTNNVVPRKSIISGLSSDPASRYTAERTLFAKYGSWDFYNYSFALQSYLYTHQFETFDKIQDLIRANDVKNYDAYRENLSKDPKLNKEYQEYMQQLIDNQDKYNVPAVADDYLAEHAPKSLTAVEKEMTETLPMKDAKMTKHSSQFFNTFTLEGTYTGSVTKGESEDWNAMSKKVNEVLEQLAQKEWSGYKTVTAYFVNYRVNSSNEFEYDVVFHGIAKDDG
Series [3] can be described thus: in vitro. The conditions noted are these: human, NHDF cells (normal human dermal fibroblasts).
Series [4] in a line: in vitro. The conditions noted are these: human, HEK293 cells (embryonal kidney).
Series [5] can be described thus: Stability of 27 with LC-MS in DMEM medium. It counts as physicochemical. As to conditions: 200 μM in DMEM, 37 °C, 5 h, 5% CO2, LC-MS. The procedure: We also examined the hydroxamate compounds 27, 28, 29, 31, 32, and 33. […] Intrigued by the results of the hydroxamate compounds, we investigated their stability with LC-MS in the conditions of the NHDF infection model to obtain a potential explanation for the observed findings. We used 27 as a representative example for this compound class.
After the incubation, 2 μL of the compound was transferred to LC-MS vials containing 200 μL of acetonitrile and LC-MS spectra were measured. Three controls were included: (i) 27 in DMEO, (ii) 27 in DMEM without incubation, and (iii) DMEM medium.

A short description of series [6]: in vitro. As to conditions: dog, MDCK II cells (Madin–Darby canine kidney II).
For another series, the target named is ColQ1-FL (Bacillus cereus, UniProt B9J3S4). In kind it is biochemical. As to conditions: 1 mg/mL Col I, 50 ng ColQ1-FL, SDS-PAGE.
In series [7] the test system is NHDF cells infected with B. cereus. Nature of the series: NHDF infection model, cell morphology/attachment and fibrillar collagen (picrosirius red). In kind it is cell-based, human.
The nature of series [8]: in vitro. The conditions noted are these: human, HepG2 cells (hepatocellular carcinoma).
In another series the target is T3, MMP-3 (Homo sapiens, UniProt P08254).
T3 construct: catalytic domains of three human MMPs; purchased Sigma-Aldrich
T3 sequence (P08254 100-272 limits assumed): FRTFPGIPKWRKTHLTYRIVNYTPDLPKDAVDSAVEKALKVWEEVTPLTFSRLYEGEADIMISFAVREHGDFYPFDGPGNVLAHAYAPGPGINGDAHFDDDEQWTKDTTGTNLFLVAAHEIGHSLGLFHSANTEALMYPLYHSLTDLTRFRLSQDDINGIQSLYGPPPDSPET
Kind of series: MMP inhibition assay, MMP-3. In kind it is biochemical. The procedure: as §1
(§2) The MMP inhibition assay (Sigma-Aldrich, Saint Louise, MO) was performed as previously reported and in accordance with the manufacturer’s instructions. The fluorescence signals were measured in a CLARIOstar plate reader (BMG LABTECH, Ortenberg, Germany) at a concentration of 100 μM.

The next series deals with TACE (ADAM-17) (Homo sapiens, UniProt P78536). Kind of series: Human off-target inhibition, TACE. It counts as biochemical. As to the method: as §1
TACE (ADAM-17), sequence (P78536 215-824): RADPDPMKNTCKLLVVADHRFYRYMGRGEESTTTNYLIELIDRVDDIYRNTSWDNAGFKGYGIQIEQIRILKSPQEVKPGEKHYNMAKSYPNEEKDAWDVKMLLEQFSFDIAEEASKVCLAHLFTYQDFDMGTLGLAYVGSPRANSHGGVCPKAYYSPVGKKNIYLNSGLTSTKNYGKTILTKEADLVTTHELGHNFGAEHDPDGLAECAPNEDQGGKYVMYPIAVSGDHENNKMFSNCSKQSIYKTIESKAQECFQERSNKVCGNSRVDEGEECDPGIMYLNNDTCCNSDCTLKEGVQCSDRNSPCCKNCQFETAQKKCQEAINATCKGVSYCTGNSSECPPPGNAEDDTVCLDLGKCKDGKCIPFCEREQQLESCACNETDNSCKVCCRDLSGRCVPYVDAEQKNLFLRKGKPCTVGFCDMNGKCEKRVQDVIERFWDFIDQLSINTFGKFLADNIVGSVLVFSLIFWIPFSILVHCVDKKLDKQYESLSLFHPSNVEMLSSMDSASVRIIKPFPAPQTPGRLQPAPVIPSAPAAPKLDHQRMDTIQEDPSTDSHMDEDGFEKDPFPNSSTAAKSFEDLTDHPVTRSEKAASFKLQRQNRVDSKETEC
For the next series, the system named is B. cereus AH187. Kind of series: B. cereus growth inhibition assay. In kind it is cell-based. The conditions noted are these: Bacillus cereus, read-out: MIC50 (µM) AH187.
Another series has as its target T4, MMP-1 (Homo sapiens, UniProt P03956).
T4 construct: catalytic domains of three human MMPs; purchased Sigma-Aldrich
T4 sequence (P03956 98-276 limits assumed): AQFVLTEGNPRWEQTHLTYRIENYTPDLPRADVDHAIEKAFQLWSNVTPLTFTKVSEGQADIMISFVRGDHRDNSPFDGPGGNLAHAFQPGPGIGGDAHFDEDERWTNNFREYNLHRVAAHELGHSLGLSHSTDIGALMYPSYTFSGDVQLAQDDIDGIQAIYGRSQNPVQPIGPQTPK
Nature of the series: MMP inhibition assay, MMP-1. In kind it is biochemical. The procedure:
as §1, §2

Another series concerns the target T5, MMP-2 (Homo sapiens, UniProt P08253).
T5 construct: catalytic domains of three human MMPs; purchased Sigma-Aldrich
Nature of the series: MMP inhibition assay, MMP-2. It counts as biochemical. As to the method:
as §1, §2

In series [9] the target is T1, ColH-PD. It counts as biochemical, C. histolyticum.
Series [10] concerns the target T2, ColQ1-CU. It counts as biochemical, B. cereus. As to conditions: rapid dilution.
Series [11] deals with T6, ColA-CU (Bacillus cereus, UniProt Q81BJ6). Kind of series: biochemical. In kind it is biochemical, B. cereus strain ATCC14579. As to conditions: for inhibition at 100 µM: read-out: Percent inhibition of ColA-CU.
T6 sequence (Q81BJ6 93-764): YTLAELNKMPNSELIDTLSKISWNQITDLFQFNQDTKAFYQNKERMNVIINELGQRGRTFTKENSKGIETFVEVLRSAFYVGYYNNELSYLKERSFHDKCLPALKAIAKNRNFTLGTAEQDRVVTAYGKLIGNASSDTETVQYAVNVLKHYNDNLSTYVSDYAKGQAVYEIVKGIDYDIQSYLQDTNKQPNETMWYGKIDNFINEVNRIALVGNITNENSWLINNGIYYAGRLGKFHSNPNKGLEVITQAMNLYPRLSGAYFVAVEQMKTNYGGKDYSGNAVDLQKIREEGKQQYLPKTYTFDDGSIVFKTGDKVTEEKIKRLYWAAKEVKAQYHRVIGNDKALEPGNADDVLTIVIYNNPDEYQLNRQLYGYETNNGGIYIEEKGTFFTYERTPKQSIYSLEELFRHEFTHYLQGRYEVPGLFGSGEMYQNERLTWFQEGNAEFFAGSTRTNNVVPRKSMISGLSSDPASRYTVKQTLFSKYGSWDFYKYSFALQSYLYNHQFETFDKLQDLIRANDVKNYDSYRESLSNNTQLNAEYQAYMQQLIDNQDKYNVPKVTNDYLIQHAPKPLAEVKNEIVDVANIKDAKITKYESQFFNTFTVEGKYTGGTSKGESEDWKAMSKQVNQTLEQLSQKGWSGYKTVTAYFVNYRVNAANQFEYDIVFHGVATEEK
Series [12] relates to B. cereus collagenases released in the NHDF infection model. In kind it is cell-based, B. cereus AH187.
Series [13] deals with T6, ColA-CU. It counts as biochemical, B. cereus. As to conditions: rapid dilution.
The next series addresses ColG-CU (Hathewaya histolytica, UniProt Q9X721). Nature of the series: biochemical. It counts as biochemical, C. histolyticum. The conditions noted are these: for inhibition at 100 µM: read-out: Percent inhibition of ColG-CU.
Another series concerns the target T7, HDAC-8 (Homo sapiens, UniProt Q9BY41).
T7 sequence (Q9BY41 1-377): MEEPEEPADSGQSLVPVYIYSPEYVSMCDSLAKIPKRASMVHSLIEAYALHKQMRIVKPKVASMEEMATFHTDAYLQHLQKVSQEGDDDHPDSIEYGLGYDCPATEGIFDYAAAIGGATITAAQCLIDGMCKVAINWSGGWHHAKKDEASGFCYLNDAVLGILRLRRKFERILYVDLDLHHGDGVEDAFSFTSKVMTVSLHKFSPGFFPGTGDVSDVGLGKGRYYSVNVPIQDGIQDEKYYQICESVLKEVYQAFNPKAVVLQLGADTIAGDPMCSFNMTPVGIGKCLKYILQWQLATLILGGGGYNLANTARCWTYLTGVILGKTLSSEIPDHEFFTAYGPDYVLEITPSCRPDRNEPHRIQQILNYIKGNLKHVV
Nature of the series: Human off-target inhibition, HDAC-8. It counts as biochemical. As to the method: as §1

The target of a further series is COX-1 (Homo sapiens, UniProt P23219). Kind of series: Human off-target inhibition, COX-1. It counts as biochemical. The procedure:
as §1

Series [14] has as its system Galleria mellonella larvae. Kind of series: Galleria mellonella larvae treated with compound only in PBS. It counts as in vivo. The conditions noted are these: no bacteria. The procedure:
Figure 8 Survival analysis of Galleria mellonella larvae treated with Bacillus cereus AH187 with and without 14 and tiludronate disodium. Each curve represents results of three independent experiments; the statistical difference between groups treated with 100, 50, and 25 μM of compound 14 and B. cereus AH187 and with the group treated only with B. cereus AH187 is p < 0.0001, p = 0.0039, and p = 0.0173, respectively. The statistical difference between groups treated with 100 μM tiludronate disodium and with B. cereus AH187 is p = 0.0032 (log-rank test). The survival rate for the larvae treated with compound 14 and tiludronate disodium in PBS was 100%.
G. mellonella larvae were purchased from a fishing store. Injections were carried out using an LA120 syringe pump (Landgraf Laborsysteme, Langenhagen, Germany) equipped with 1 mL Injekt-F tuberculin syringes (B. Braun, Melsungen, Germany) and Sterican 0.30 × […], 30 G × 1.5 needles (B. Braun). The larvae were divided into five groups depending on their treatment: (i) sterile PBS, (ii) no injection, (iii) only compound, (iv) BC AH187 bacterial suspension, and (v) BC AH187 bacterial suspension with compound. Larvae were incubated at 37 °C for 3 days and inspected twice daily. The total larvae used in all three experiments were 40 larvae per group.

Series [15] relates to B. cereus AH187 infection. It counts as in vivo, Galleria mellonella.

T1 sequence (Q46085 331-721 limits assumed): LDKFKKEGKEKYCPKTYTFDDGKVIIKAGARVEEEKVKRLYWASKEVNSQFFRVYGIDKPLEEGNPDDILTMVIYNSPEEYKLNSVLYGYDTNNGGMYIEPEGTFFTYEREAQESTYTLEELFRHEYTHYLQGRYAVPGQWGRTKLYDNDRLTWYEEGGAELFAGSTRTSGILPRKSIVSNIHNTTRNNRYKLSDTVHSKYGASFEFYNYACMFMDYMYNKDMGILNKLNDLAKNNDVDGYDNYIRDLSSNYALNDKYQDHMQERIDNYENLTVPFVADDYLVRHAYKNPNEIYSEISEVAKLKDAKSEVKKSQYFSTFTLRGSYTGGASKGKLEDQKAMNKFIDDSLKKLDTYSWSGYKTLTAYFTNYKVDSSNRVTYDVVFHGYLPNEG
ColG-CU, sequence (Q9X721 111-786): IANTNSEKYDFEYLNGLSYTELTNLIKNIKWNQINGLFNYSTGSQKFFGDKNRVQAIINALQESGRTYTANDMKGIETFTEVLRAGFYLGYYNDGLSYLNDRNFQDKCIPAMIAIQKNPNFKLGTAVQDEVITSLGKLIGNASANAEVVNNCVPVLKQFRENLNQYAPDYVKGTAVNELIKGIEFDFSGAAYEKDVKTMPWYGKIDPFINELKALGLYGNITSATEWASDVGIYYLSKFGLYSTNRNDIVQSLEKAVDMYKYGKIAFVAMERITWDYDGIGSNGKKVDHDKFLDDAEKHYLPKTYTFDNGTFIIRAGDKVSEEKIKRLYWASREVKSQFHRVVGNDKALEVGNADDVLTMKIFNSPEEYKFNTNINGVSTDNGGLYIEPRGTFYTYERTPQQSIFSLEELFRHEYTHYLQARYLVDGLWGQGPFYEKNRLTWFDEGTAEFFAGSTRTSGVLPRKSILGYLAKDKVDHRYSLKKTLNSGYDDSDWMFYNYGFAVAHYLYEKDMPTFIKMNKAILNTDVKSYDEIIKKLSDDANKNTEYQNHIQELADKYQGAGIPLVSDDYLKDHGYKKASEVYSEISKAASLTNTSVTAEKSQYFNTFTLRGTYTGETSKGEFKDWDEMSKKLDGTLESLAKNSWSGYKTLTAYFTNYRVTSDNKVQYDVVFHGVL
T5 sequence (P08253 110-444 limits assumed): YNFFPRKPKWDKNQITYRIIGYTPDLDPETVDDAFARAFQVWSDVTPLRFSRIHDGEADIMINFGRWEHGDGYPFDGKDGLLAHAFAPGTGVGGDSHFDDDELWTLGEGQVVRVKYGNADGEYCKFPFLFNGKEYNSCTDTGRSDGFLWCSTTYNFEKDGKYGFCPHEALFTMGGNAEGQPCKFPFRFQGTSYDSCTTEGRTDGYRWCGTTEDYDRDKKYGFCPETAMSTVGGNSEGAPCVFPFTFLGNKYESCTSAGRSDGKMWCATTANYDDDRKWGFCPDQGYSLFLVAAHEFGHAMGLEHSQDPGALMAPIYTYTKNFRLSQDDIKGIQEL
HDAC-3, sequence (O15379 whole entry, the tested form may be a part): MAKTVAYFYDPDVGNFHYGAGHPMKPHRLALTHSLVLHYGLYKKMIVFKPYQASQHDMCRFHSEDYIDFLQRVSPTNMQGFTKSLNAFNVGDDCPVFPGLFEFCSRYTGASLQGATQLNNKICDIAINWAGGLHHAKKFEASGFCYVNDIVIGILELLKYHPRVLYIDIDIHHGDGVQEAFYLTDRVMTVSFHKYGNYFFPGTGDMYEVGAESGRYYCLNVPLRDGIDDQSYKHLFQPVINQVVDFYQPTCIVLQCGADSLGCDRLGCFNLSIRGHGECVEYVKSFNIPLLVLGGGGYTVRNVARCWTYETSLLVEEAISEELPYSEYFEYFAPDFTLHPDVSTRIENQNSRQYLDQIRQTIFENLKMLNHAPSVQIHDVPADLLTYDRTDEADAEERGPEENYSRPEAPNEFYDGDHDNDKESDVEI
HDAC-3, sequence (Q9Y618 395-489 partner limits assumed): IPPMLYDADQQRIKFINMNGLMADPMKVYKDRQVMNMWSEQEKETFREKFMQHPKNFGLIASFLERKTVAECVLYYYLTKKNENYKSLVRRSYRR
COX-1, sequence (P23219 24-599): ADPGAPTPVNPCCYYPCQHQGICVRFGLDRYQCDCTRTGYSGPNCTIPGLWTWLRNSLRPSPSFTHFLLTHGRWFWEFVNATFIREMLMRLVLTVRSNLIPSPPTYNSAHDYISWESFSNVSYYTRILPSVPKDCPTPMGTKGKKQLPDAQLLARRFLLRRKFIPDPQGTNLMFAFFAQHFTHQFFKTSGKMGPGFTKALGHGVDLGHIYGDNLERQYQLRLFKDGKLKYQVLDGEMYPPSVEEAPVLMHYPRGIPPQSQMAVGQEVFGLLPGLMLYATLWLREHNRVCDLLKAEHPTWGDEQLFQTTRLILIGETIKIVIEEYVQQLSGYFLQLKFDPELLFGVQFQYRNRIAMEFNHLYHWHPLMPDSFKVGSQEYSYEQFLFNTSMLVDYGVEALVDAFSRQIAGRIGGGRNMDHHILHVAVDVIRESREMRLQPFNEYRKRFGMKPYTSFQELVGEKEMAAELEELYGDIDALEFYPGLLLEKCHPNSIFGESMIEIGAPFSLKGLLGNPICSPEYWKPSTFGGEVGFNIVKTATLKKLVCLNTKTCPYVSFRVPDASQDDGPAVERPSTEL

In the case of `CC(NC(=O)C(Cc1ccccc1)NC(=O)NS(=O)(=O)c1ccc(F)cc1)C(=O)Nc1nnc(S)s1` (centres unmarked) [Compound 3], at MMP-8, the Ki was 0.1 µM.
Take `CC(=O)c1ccc(NC(=O)CS)cc1` [Compound 4b]: the IC50 with ColH (recently identified inhibitors) was 0.017 µM.
In the case of `CC(=O)c1ccc(N2C(=O)CC(S)C2=O)cc1` (centres unmarked) [Compound 5], the “% of inhibition at 100 μM (ColH)” value with ColH (100 μM) is listed as 96%.
For the molecule `CC(=O)Nc1ccccc1OCc1cn(CCNC(=O)C(CC(C)C)C(=O)NO)nn1` (centres unmarked) [Compound 27, N-[2-[4-[(2-Acetamidophenoxy)methyl]triazol-1-yl]ethyl]-2-(hydroxycarbamoyl)-4-methyl-pentanamide], the concentration for half-maximal inhibition (IC50) against HDAC-3 was above 100 µM; against ColQ1-CU [2], 1.2 ± 0.1 µM; in the series “in vitro [3]”, above 200 µM; in “in vitro [4]”, above 100 µM; in “in vitro [6]”, above 200 µM; in the series “in vitro [8]”, above 100 µM. The IC50 against MMP-3, against TACE (ADAM-17), at MMP-1, at MMP-2 and against HDAC-8 was above 100 µM throughout. For the same molecule, the Ki amounted to 11.6 ± 0.4 µM on ColH-PD [1], 0.1 ± 0.02 µM at ColQ1-CU [2], 3.4 ± 4 µM on ColA-CU [11] and 31 ± 1 µM on ColG-CU. Further, the inhibition at 100 µM on ColH-PD [1] stood at 84 ± 2%; at ColQ1-CU [2] (read-out: % Inhibition (ColQ1-CU) Mean), 97 ± 2%; at ColA-CU [11], 93 ± 2%; on ColG-CU, 71 ± 7%. In addition, in [5], the “Stability under NHDF infection assay conditions” value was “no compound degradation; also recorded: confirmed, however, the stability”. In addition, at ColQ1-FL, the “Concentration above which Col I chains were maintained” value is above 0.8 µM. The “Effect on cell morphology and ECM collagen content of infected NHDF cells” value in series [7] (B. cereus infection, 5 h) is “neither able to rescue cell morphology nor able to maintain the collagen content of the ECM”. In addition, the MIC50 with B. cereus AH187 (AH187, BHI medium, 37 °C, 48 h, 200–3 μM) came out at 200 µM (≈ 86.5 µg/mL). In addition, the “Reversibility of inhibition, ColH” value on ColH-PD [9] was “rapidly reversible inhibitors”. The “Reversibility of inhibition, ColQ1-CU” value on ColQ1-CU [10] is given as “rapidly reversible inhibitors”. Also, the “Inhibitory effect on gelatinolytic activity of secreted collagenases” value in [12] is on record as “no inhibitory effect on the collagenase in the zymography at all tested concentrations; also recorded: no inhibition of the collagenase in the gelatin zymography was detected”. In addition, the “Reversibility of inhibition, ColA-CU” value at ColA-CU [13] is “rapidly reversible inhibitors”.
On to `O=P([O-])(O)C(Sc1ccc(Cl)cc1)P(=O)([O-])O.[Na+].[Na+]` [Tiludronate disodium, reference compound], for which the half-inhibitory concentration (IC50) against HDAC-3 was above 100 µM; on COX-1 it was above 100 µM; against MMP-3, above 100 µM; at TACE (ADAM-17) it was above 100 µM; on MMP-1 it was 50 ± 10 µM; on MMP-2, above 100 µM. The half-inhibitory concentration (IC50) at HDAC-8 was above 100 µM. Further, the inhibition at 100 µM at ColH-PD [1] turned out to be 91 ± 2%; against ColQ1-CU [2] it was 63 ± 3%; on ColA-CU [11], 72 ± 2%; at ColG-CU, 28 ± 7%. For the same molecule, the “Concentration showing dose-dependent effects on NHDF morphology, fibrillar ECM collagen content and LDH release” value in series [7] is given as at least 100 μM. In addition, the “Survival rate of larvae treated with compound in PBS” value in [14] came to 100%. Moreover, the MIC50 with B. cereus AH187 (AH187, 48 h) was 200 µM. The “Increase in survival of infected larvae” value in series [15] (100 μM) is 40%. The “Survival of infected larvae vs control without inhibitor” value in series [15] (37 °C, 3 days) is listed as “ameliorated the survival of the larvae in a dose-dependent manner”. For the same molecule, the “Concentration giving complete inhibition of gelatinolytic activity” value in [12] came to 100 µM.
